“Also recorded” adds a separate entry of the source. Peptide text beside a SMILES is read from it.
Tests used:
[1] = target: T1, FGF14:Nav1.6 complex (Homo sapiens, UniProt Q92915); experiment: Split-luciferase complementation assay (LCA), CLuc-FGF14 wild type; format: cell-based; details: for effect on FGF14:Nav1.6 complex formation: 50 µM, 12 hr, HEK293, % maximal luminescence vs DMSO, n = 6–10 independent experiments, FLPK, EYYV p < .01, PLEV p < .001
T1 construct: expressed in transfected cells; host or cells: HEK293, transient transfection
T1 sequence (Q92915 1-252 isoform Q92915-2): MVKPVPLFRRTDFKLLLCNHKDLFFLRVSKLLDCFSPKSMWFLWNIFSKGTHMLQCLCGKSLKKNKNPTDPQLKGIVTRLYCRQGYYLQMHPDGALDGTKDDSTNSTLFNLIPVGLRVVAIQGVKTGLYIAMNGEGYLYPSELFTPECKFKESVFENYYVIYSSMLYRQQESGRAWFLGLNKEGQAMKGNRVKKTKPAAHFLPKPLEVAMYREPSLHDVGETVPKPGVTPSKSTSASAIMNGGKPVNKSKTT
Source text: (§1) Plasmids used in this study derived from the following clones: human FGF14‐1b isoform (accession number: NM_175929.2) and human Nav1.6 (accession number: NM_014191.3). The CLuc‐FGF14, CD4‐Nav1.6‐NLuc, constructs and the pcDNA3.1 vector (Invitrogen, Carlsbad, CA) were engineered and characterized as previously described (Goetz et al., 2009; Shavkunov et al., 2012,2013,2015; Ali et al., 2016, 2018; Wadsworth et al., 2019). The plasmid pGL3 expressing full length Firefly (Photinus pyralis) luciferase was a gift from Dr. P. Sarkar (Department of Neurology, UTMB). For protein purification studies, cDNAs encoding FGF14‐1b (accession number NP_787125; aa 64–252) or the C‐terminal tail of Nav1.6 (accession number #NP_001171455; aa 1756–1939) were subcloned into suitable pET bacterial expression vectors (pET28a‐FGF14; pET30a‐Nav1.6) with a 6X His‐tag at the N‐terminal site; these plasmids were a gift of Dr. Moosa Mohammadi (NYU, Langone Medical Center). The mutation coding for FGF14^V160A was generated by site‐directed mutagenesis and PCR using FGF14‐1b as a template described previously (Ali et al., 2016). For electrophysiological studies FGF14‐GFP (human) and FGF14‐ΔNT‐GFP (human) were cloned into the GFP plasmid (pQBI‐fC2; Quantum Biotechnology Inc., Montreal, Canada) as previously described.
HEK293 cells were maintained in DMEM and F‐12 (Invitrogen, Carlsbad, CA), supplemented with 0.05% glucose, 0.5 mM pyruvate, 10% fetal bovine serum, 100 units/ml penicillin, and 100 µg/ml streptomycin (Invitrogen), and incubated at 37 °C with 5% CO2. HEK293 cells stably expressing the human Nav1.6 channel (hereafter referred to as HEK‐Nav1.6 cells) were maintained similarly except for the addition of 500 μg/ml G418 (Invitrogen) to maintain stable Nav1.6 expression. Cells were transfected at 80%–90% confluence with equal amount (1 μg each) of plasmid pairs using Lipofectamine 2000 (Invitrogen) according to manufacturer's instructions. HEK‐Nav1.6 cells were washed and replated at very low density prior to electrophysiological recordings (Ali et al., 2016, 2018; Scala et al., 2018; Wadsworth et al., 2019).
(§2) Twenty‐four hours after transfection, HEK293 cells were replated from the 24‐well plate using a 0.04% Trypsin:EDTA mixture dissolved in PBS. Suspended cells were centrifuged and seeded in white, clear‐bottom 96‐well tissue culture plates (Greiner Bio‐One) in 200 µl of medium. […] The bioluminescence reaction was initiated by dispensing 100 µl of D‐luciferin substrate (1.5 mg/ml dissolved in PBS) using a Synergy^TM H4 Multi‐Mode Micro plate Reader (Biotech, Winooski, VT). Luminescence readings were initiated after 3 s of mild plate shaking and performed at 2 min intervals for 20 min with integration times of 0.5 s. […]
(§3) To test the hypothesis that FLPK, PLEV and/or EYYV in cells could act as FGF14 inhibitors of the FGF14:Nav1.6 complex assembly, the complex was reconstituted using LCA (Ali et al., 2014, 2016; Hsu et al., 2015, 2017; Shavkunov et al., 2012,2013,2015; Wadsworth et al., 2019). HEK293 cells transfected with constructs expressing CLuc‐FGF14 and CD4‐Nav1.6 C‐tail‐NLuc in which luminescence is detected upon addition of the D‐luciferin substrate as a read‐out of protein binding (Figure 3). In‐cell binding of the reconstituted FGF14:Nav1.6 complex in the presence of vehicle (0.1% DMSO) is represented as summary bar graphs of percent maximal luminescence at 10–15 min of reaction time (Figure 3). […]

[2] = system: FGF14^Y158A/V160A:Nav1.6 complex; experiment: LCA, CLuc-FGF14^Y158A/V160A; format: cell-based, human; details: 50 µM peptide, 12 hr, HEK293, vs DMSO
[3] = system: FGF14^V160A:Nav1.6 complex; experiment: LCA, CLuc-FGF14^V160A; format: cell-based, human; details: 50 µM peptide, 12 hr, HEK293, vs DMSO
Source text: as §1, with “For electrophysiological studies FGF14‐GFP (human) and FGF14‐ΔNT‐GFP (human) were cloned into the GFP plasmid (pQBI‐fC2; Quantum Biotechnology Inc., Montreal, Canada) as previously described.” left out
as §2, with “PBS.” for “PBS. Suspended cells were centrifuged and seeded in white, clear‐bottom 96‐well tissue culture plates (Greiner Bio‐One) in 200 µl of medium.”
as §3, with “3).” for “3). In‐cell binding of the reconstituted FGF14:Nav1.6 complex in the presence of vehicle (0.1% DMSO) is represented as summary bar graphs of percent maximal luminescence at 10–15 min of reaction time (Figure 3).”

With “EYYV [tetrapeptide previously designed from FGF14:FGF14 dimer interface; docked with N-terminal acetylation and C-terminal amidation]” the “effect on FGF14:Nav1.6 complex formation” value [1] was “significant reduction of the FGF14:Nav1.6 complex formation”, the “effect on FGF14^Y158A/V160A:Nav1.6 complex formation” value [2] was “prevented the effect of FLPK and EYYV; also recorded: abolished” and the “effect on FGF14^V160A:Nav1.6 complex formation” value [3] was “prevented the effect of FLPK and EYYV; also recorded: abolished”.

In the case of “PLEV [tetrapeptide previously designed from FGF14:FGF14 dimer interface; docked with N-terminal acetylation and C-terminal amidation]”, the “effect on FGF14:Nav1.6 complex formation” value [1] is reported as “significant reduction of the FGF14:Nav1.6 complex formation”, the “effect on FGF14^Y158A/V160A:Nav1.6 complex formation” value [2] is reported as “slight, but statistically significant increase; also recorded: not PLEV” and the “effect on FGF14^V160A:Nav1.6 complex formation” value [3] is reported as “not PLEV”.

With `CC(=O)N[C@@H](Cc1ccccc1)C(=O)N[C@@H](CC(C)C)C(=O)N1CCC[C@H]1C(=O)N[C@@H](CCCCN)C(N)=O` [FLPK] (Ac-FLPK-NH2) the “effect on FGF14:Nav1.6 complex formation” value [1] was “significant reduction of the FGF14:Nav1.6 complex formation; also recorded: weak inhibition”, the IC50 ([1]; HEK293 cells, FLPK 1, 10, 25, 50, 75, 100, 150, 250 µM, luminescence normalized to DMSO, apparent IC50, read-out: IC50, inhibition of FGF14:Nav1.6 complex formation) was 58 µM and the “efficacy in reducing FGF14:Nav1.6 complex formation” value ([1]; dose-response (Figure 3f), compared to control conditions) was “above 50%”. For the same compound, the “effect on FGF14^Y158A/V160A:Nav1.6 complex formation” value [2] was “prevented the effect of FLPK and EYYV; also recorded: abolished” and the “effect on FGF14^V160A:Nav1.6 complex formation” value [3] was “prevented the effect of FLPK and EYYV; also recorded: abolished”.

Source: paper PMC7363588, “Mapping of the FGF14:Nav1.6 complex interface reveals FLPK as a functionally active peptide modulating excitability” (Physiological Reports, 2020)
